Results from ChEMBL document CHEMBL4823254, “Tetrahydroquinoline-Capped Histone Deacetylase 6 Inhibitor SW-101 Ameliorates Pathological Phenotypes in a Charcot-Marie-Tooth Type 2A Mouse Model” (J Med Chem, 2021).

Assays:
[1] = biological target: Histone deacetylase 9 (Homo sapiens, UniProt Q9UKV0); experiment: Inhibition of recombinant human HDAC9 using Boc-Lys(TFA)-AMC as substrate preincubated for 10 mins followed by substrate addition and measured after 30 mins by fluorescence-based assay
[2] = Genotoxicity in Salmonella typhimurium TA1537 at 5 to 100 uM in absence of liver S9 fraction by Ames test; type: toxicity; conditions: salmonella enterica subsp. enterica serovar typhimurium, s9, 100 µM; dose 5-100 µM
[3] = biological target: Histone deacetylase 1 (Homo sapiens, UniProt Q13547)
Sequence of Histone deacetylase 1 (Q13547 whole entry): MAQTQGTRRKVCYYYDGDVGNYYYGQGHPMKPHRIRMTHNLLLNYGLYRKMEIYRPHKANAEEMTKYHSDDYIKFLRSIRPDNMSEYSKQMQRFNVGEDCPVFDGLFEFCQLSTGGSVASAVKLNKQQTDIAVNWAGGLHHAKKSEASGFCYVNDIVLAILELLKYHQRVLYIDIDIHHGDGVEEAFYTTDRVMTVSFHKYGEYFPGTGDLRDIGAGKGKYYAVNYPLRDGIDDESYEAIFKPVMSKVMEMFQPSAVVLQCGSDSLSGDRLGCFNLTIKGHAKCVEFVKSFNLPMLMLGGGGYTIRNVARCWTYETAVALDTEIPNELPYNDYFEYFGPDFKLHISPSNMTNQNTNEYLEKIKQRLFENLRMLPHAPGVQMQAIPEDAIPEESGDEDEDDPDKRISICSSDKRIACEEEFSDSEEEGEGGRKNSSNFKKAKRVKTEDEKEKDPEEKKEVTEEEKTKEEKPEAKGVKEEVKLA
Description: Inhibition of recombinant human HDAC1 using Ac-GAK(Ac)-AMC as substrate preincubated for 10 mins followed by substrate addition and measured after 30 mins by fluorescence-based assay

[4] = Genotoxicity in Salmonella typhimurium TA1535 at 5 to 100 uM in presence of liver S9 fraction by Ames test; type: toxicity; conditions: salmonella enterica subsp. enterica serovar typhimurium, s9, 100 µM; dose 5-100 µM
[5] = Protein binding in human plasma; type: ADME, cell-free; conditions: read-out: PPB (converted)
[6] = Cmax in C57BL/6J mouse brain at 15 mg/kg, ip; type: ADME, organism-based; parameters: route intraperitoneal, dose 15 mg/kg

Sequence of Histone deacetylase 9 (Q9UKV0 whole entry): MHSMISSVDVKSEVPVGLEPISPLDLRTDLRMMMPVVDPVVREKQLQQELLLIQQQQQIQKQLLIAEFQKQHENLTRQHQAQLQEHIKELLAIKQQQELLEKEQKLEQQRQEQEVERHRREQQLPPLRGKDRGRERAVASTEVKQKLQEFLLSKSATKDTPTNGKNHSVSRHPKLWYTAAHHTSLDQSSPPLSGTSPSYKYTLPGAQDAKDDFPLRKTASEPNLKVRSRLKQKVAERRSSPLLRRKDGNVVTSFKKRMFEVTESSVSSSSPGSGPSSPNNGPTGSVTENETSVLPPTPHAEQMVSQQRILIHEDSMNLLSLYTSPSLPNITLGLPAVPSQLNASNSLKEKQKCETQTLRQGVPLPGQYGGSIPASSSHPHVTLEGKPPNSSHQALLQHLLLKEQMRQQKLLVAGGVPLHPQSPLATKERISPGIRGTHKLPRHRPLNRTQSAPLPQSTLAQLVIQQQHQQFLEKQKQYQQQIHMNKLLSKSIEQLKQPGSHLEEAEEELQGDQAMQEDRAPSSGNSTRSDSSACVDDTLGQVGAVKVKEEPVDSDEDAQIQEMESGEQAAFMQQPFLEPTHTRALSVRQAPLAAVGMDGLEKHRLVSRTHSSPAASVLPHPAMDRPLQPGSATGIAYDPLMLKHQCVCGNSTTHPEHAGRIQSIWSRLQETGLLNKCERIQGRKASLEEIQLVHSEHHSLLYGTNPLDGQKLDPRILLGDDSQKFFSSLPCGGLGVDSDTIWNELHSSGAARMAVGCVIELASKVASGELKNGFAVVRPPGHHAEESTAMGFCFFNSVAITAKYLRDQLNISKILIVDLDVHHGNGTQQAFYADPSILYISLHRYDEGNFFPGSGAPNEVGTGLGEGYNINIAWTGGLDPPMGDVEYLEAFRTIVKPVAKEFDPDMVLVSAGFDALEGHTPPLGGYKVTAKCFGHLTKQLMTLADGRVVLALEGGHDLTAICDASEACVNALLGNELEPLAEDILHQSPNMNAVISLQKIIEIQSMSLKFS

IC50 [1]: 0.65 µM
IC50 [3]: 0.356 µM
fraction unbound [5]: 0.142
Cmax [6]: 223 ng/mL
SMILES: NC(=O)c1ccc2c(c1)CCCN2Cc1ccc(C(=O)NO)cc1
Activity [2]: Non-Toxic
Activity [4]: Non-Toxic
